Data: patent EP0312346B1, “E. coli sequence specific acid protease” (GENENCOR INTERNATIONAL, INC., priority 1987, dated 1989)

Tested on: acid protease of E.coli
Assay: Inhibition of the protease cleaving activity (lysis at pH 5, 26 Kd CCP fragment on Western blot)
Format: biochemical
Description: E.coli expressing CCP was lysed at pH 5 in the presence of increasing concentrations of poly-L-lysine or poly-L-arginine. Any protease activity was evidenced by the appearance of the 26 Kd fragment on Western blot. […] No 26 Kd fragment appeared; DTT, PMSF and EDTA had no inhibitory effect on the lysine-lysine lysine-arginine, arginine-lysine or arginine-arginine cleaving activity of the protease.

[1] = 1 mM inhibitor, E.coli expressing CCP lysed at pH 5, no 26 Kd fragment appeared on Western blot

Substance	inhibition of the protease activity [1]	inhibition of the protease activity (no concentration stated)
poly-L-arginine	completely inhibited	inhibited
poly-L-lysine	completely inhibited	inhibited
